Test results published in paper PMC9199882 (Clinical and Translational Science, 2022).
Read-outs that look alike come from different tables or passages of the source.

How the values were obtained:
[1] = Midazolam and 1-hydroxymidazolam plasma PK, DDI study stage 1
[2] = patients with CML, doses of up to 200 mg b.i.d.; cited from earlier work
[3] = cited from earlier work
[4] = patients with CML, 40 mg bid, ref Novartis, unpublished data, cited from earlier work
CYP2C9 = assay: Effect of asciminib on CYP2C9 substrate warfarin
CYP2C8 = assay: Effect of asciminib on CYP2C8 substrate repaglinide; conditions: for AUClast G mean ratio (90% CI) / Cmax G mean ratio (90% CI): repaglinide + asciminib / repaglinide
CYP3A = assay: Effect of asciminib on CYP3A substrate midazolam; conditions: for AUClast G mean ratio (90% CI) / Cmax G mean ratio (90% CI): midazolam + asciminib / midazolam
[5] = midazolam 7.5 mg oral; cited from earlier work
blood glucose = assay: Blood glucose concentration-time profile of repaglinide; assay type: in vivo, human; conditions: blood glucose concentration–time profiles, 6 h post-dose, days 1 and 5
[6] = Repaglinide plasma PK, DDI study stage 2
[7] = for Cmax, adjusted G mean: linear mixed model
[8] = warfarin 10 mg oral, cited from earlier work
prothrombin time = assay: Prothrombin pharmacodynamic analysis of warfarin; conditions: warfarin + asciminib vs warfarin alone
[9] = ref Novartis, unpublished data, 9, 10
[10] = midazolam at asciminib steady-state vs midazolam alone
[11] = repaglinide in the presence of asciminib vs alone
[12] = warfarin 5 mg oral + asciminib 40 mg b.i.d. steady-state, day 11, plasma
[13] = warfarin 5 mg oral alone, day 1, plasma
[14] = warfarin + asciminib 40 mg b.i.d. steady-state
[15] = warfarin at asciminib steady-state vs warfarin alone

SMILES: OCc1ncc2n1-c1ccc(Cl)cc1C(c1ccccc1F)=NC2 [1-hydroxymidazolam, 1‐hydroxymidazolam]
- metabolite‐to‐parent ratio of G mean AUCinf ([1]; midazolam alone): 0.31
- metabolite‐to‐parent ratio of G mean AUClast ([1]; midazolam alone): 0.31
- metabolite‐to‐parent ratio of G mean AUCinf ([1]; midazolam with asciminib): 0.29
- metabolite‐to‐parent ratio of G mean AUClast ([1]; midazolam with asciminib): 0.27

SMILES: O=C(Nc1ccc(OC(F)(F)Cl)cc1)c1cnc(N2CC[C@@H](O)C2)c(-c2ccn[nH]2)c1 [Asciminib, asciminib]
- maximum tolerated dose [2]: not reached
- half‐life (T 1/2) [3]: 7 to 15 h
- unchanged asciminib in urine [3]: 2.5%
- unchanged asciminib share of drug‐related exposure in plasma [3]: > 90%
- mean recovery from feces ([3]; disposition studies in humans): 80%
- clearance pathway: direct glucuronidation by UGT ([3]; mainly UGT2B7, UGT2B17, UGT1A3/4, ref Novartis, unpublished data, 9, 10): 27.9%
- clearance pathway: oxidation by CYP3A4 ([3]; part of the CYP oxidation, ref Novartis, unpublished data, 9, 10): 36%
- median time to reach the maximum plasma concentration (Tmax) ([3]; post‐dose): 2 to 3 h
- clearance pathway: biliary secretion by BCRP [3, 9]: 31.1%
- clearance pathway: oxidation by cytochrome P450 enzymes [3, 9]: 37.8%
- Cmax at steady‐state, unbound asciminib [4]: 0.048 µM
- Cmax ([4]; read-out: Cmax at steady‐state, total asciminib): 1.77 µM
- inhibitor classification, CYP2C9 (CYP2C9; asciminib 40 mg b.i.d.): weak inhibitor
- effect on CYP2C8 (CYP2C8; asciminib 40 mg b.i.d.): no meaningful effect
- inhibitor classification, CYP3A (CYP3A; human, in vivo): weak inhibitor

SMILES: Cc1ncc2n1-c1ccc(Cl)cc1C(c1ccccc1F)=NC2 [Midazolam, midazolam]
- median Cmax [5]: 0.0631 µg/mL
- median T 1/2 [5]: 3.2 h
- median Tmax [5]: 0.34 h
- AUC(0-inf) ([1]; human, plasma, oral, AUCinf, adjusted G mean, midazolam alone, linear mixed model): 0.0374 µg·h/mL
- AUC(0-t) ([1]; human, plasma, oral, AUClast, adjusted G mean, midazolam alone, linear mixed model): 0.0354 µg·h/mL
- Cmax ([1]; human, plasma, oral, Cmax, adjusted G mean, midazolam alone, linear mixed model): 0.0159 µg/mL
- Tmax ([1]; human, plasma, po, 4 mg): 0.51 h
- Vd/F ([1]; human, plasma, po, 4 mg): 413 L
- CL/F, G mean (GCV%) ([1]; midazolam 4 mg oral + asciminib 40 mg b.i.d. steady-state, day 11): 83.0 (38.8) L/h
- AUClast, G mean (GCV%) ([1]; midazolam 4 mg oral + asciminib 40 mg b.i.d. steady-state, day 11, plasma): 44.9 (38.1) ng × h/ml
- CL/F, G mean (GCV%) ([1]; midazolam 4 mg oral alone, day 1): 107 (31.2) L/h
- AUClast G mean ratio (90% CI) (CYP3A): 1.27
- Cmax G mean ratio (90% CI) (CYP3A): 1.11
- AUClast G mean ratio (90% CI) (CYP3A; listed as midazolam): 1.27 (1.14, 1.41)
- Cmax G mean ratio (90% CI) (CYP3A; listed as midazolam): 1.11 (0.96, 1.28)
- increase in AUCinf (CYP3A; [10]): 28%
- increase in AUClast (CYP3A; [10]): 27%
- increase in Cmax (CYP3A; [10]): 11%

SMILES: CCOc1cc(CC(=O)N[C@@H](CC(C)C)c2ccccc2N2CCCCC2)ccc1C(=O)O [Repaglinide, repaglinide]
- glucose‐metabolizing activity alone or in combination with asciminib (blood glucose): no difference
- Cmax ([6]; human, plasma, oral, 0.5 mg): 0.00671 µg/mL
- Cmax ([6]; human, plasma, po, 0.5 mg): 0.00671 µg/mL
- Tmax ([6]; human, plasma, po, 0.5 mg): 0.75 h
- Vd/F ([6]; human, plasma, po, 0.5 mg): 162 L
- CL/F, G mean (GCV%) ([6]; repaglinide 0.5 mg oral + asciminib 40 mg b.i.d. steady-state, day 5): 43.2 (38.2) L/h
- T 1/2, G mean (GCV%) ([6]; repaglinide 0.5 mg oral + asciminib 40 mg b.i.d. steady-state, day 5, plasma): 2.09 (76.3) h
- CL/F, G mean (GCV%) ([6]; repaglinide 0.5 mg oral alone, day 1): 46.3 (36.8) L/h
- T 1/2, G mean (GCV%) ([6]; repaglinide 0.5 mg oral alone, day 1, plasma): 2.42 (46.2) h
- AUClast G mean ratio (90% CI) (CYP2C8): 1.09
- Cmax G mean ratio (90% CI) (CYP2C8): 1.14
- AUClast G mean ratio (90% CI) (CYP2C8; listed as repaglinide): 1.09 (1.03, 1.15)
- Cmax G mean ratio (90% CI) (CYP2C8; listed as repaglinide): 1.14 (1.01, 1.28)
- increase in AUCinf (CYP2C8; [11]): 8%
- increase in AUClast (CYP2C8; [11]): 9%
- increase in Cmax (CYP2C8; [11]): 14%

SMILES: CC(=O)C[C@H](c1ccccc1)c1c(O)c2ccccc2oc1=O [R‐Warfarin, R‐warfarin]
- Cmax, G mean (GCV%) [7, 12]: 213 (20.4) ng/ml
- Tmax, median (range) [7, 12]: 2.95 (0.94–11.7) h
- Cmax, G mean (GCV%) [7, 13]: 196 (19.6) ng/ml
- Tmax, median (range) [7, 13]: 2.01 (0.99–12.0) h
- Tmax, median (range) ([7]; warfarin 5 mg oral alone, day 1, plasma, listed as R‐warfarin): 2.0 h
- Cmax, adjusted G mean [7, 14]: 0.215 µg/mL
- Cmax, adjusted G mean ([7]; warfarin alone): 0.196 µg/mL
- increase in AUCinf (CYP2C9; [15]): 25%
- increase in AUClast (CYP2C9; [15]): 24%
- increase in Cmax (CYP2C9; [15]): 10%

SMILES: CC(=O)C[C@@H](c1ccccc1)c1c(O)c2ccccc2oc1=O [S‐Warfarin, S‐warfarin]
- Cmax, G mean (GCV%) [7, 12]: 225 (17.2) ng/ml
- Tmax, median (range) [7, 12]: 2.00 (0.94–3.99) h
- Cmax, G mean (GCV%) [7, 13]: 209 (18.6) ng/ml
- Tmax, median (range) [7, 13]: 2.00 (0.99–4.00) h
- Cmax, adjusted G mean [7, 14]: 0.227 µg/mL
- Cmax, adjusted G mean ([7]; warfarin alone): 0.209 µg/mL
- increase in AUClast (CYP2C9; [15]): 39%
- increase in Cmax (CYP2C9; [15]): 9%

SMILES: CC(=O)CC(c1ccccc1)c1c(O)c2ccccc2oc1=O (stereo not drawn) [Warfarin, warfarin]
- Cmax ([8]; read-out: median Cmax): 1.7 to 2 µM
- median Cmax ([8]; converted from μM): 0.5 to 0.6 µg/mL
- median Tmax [8]: 2 h
- anticoagulation activity on co‐administration with asciminib (prothrombin time): unaffected
